Earlier results, collected in patent US6440956B1, “Bicyclic polyaminoacid metal complexes, their process of preparation and their application in medical imaging” (Guerbet, priority 1999, dated 2002).

Conditions: ratio to commercial gadolinium chelates; from Inorganic Chemistry 36(14) 2992-3000 (1997) and Magn. Reson. Chem. 36, S200-208 (1998)

## O=C([O-])CN1CCN(CC(=O)[O-])Cc2cccc(n2)CN(CC(=O)[O-])CC1.[Gd+3] [PCTA]
  longitudinal relaxation r1 relative to that of the gadolinium chelates used as contrast agents in magnetic resonance imaging in man: ~2 times
